Values joined by “and” are separate entries in the source; they are usually repeats but may differ in a detail not shown here. Identical values can stand only once. “Also recorded” adds a separate entry of the source.
System: rabbits
Experiment: Intraocular pressure (IOP) after topical ocular dosing in rabbits
Assay type: in vivo, rabbit
Conditions: for Ave OS 2 hpt IOP: left eye; for Ave OS 2 hpt IOP / Avg OD 2 hpt IOP: 2 hours after dosing
Experimental: The IOP was assessed as a component of clinical outcomes for the animals in the studies described herein. The table below represents the effect of R-DOI on IOP 2 hours after dosing with the indicated concentration of R-DOI. Eyes were individually assessed and are indicated as IOP for the right (OD) or left (OS) eye.
Each eye of each rabbit was then assessed for initial IOP by tonometer.
IOP determinations were made at 30 minutes, 1 hour, 1.5 hours and 2.5 hours-eyes were examined closely for any adverse effects during these IOP measures.
3 days post treatment at the same time initial measures were made, IOP and tear film production were re-assessed to examine if effects were sustained post 1 treatment.
The IOP was assessed via a TonoVet rebound Tonometer. The tables herein (see, for example, FIG. 4) represent the effect of Compound 1 on IOP at time intervals within the first 2.5 hours after dosing with 0.01% Compound 1 in BSS with 0.5% CMC. Eyes were individually assessed and are indicated as IOP for the right (OD) or left (OS) eye. 3 days post treatment eyes were reassessed for IOP changes to see if the effects of treatment lasted over a prolonged period.
• Rabbits were assessed for clinically clear eyes by slit lamp ophthalmic scoring. All eyes of all rabbits were normal. • Each eye of each rabbit was then assessed for initial IOP by tonometer. • Each eye of each rabbit was assessed for tear film production by Schirmer's Tear Flo Strips at a 30 second interval of analysis. Tear measures were evaluated by a digital caliper to determine mm of tears collected. • Rabbits were sorted into two groups attempting to balance IOP numbers (one higher, one lower animal per group). • Following animals were treated with 50 μL of Control ophthalmic BSS/0.5% CMC or 0.01% R-DOI HCl in ophthalmic BSS/0.5% CMC. • Any apparent behavioral changes were continuously monitored over the next 2.5 hours. • IOP determinations were made at 30 minutes, 1 hour, 2 hours and 3 hours, 5 hours, 7 hours and 24 hours-eyes were examined closely for any adverse effects during these IOP measures. • 7 hours post treatment when IOP returned to control levels tear film production was assessed (see, for example, FIG. 9).
The IOP was assessed via a TonoVet rebound Tonometer. The tables herein (see, for example, FIGS. 10-11) represents the effect of R-DOI on IOP at the defined time intervals Eyes were individually assessed and are indicated as IOP for the right (OD) or left (OS) eye.

[1] = 0.01% single dose, group E5/E6, 2 h
[2] = 0.1% single dose, group E3/E4, 2 h

COc1cc(C[C@@H](C)N)c(OC)cc1I [R-DOI, (R)-1-(2,5-dimethoxy-4-iodophenyl)-2-aminopropane]
time post administration by which a significant decrease in IOP was shown (0.01% single dose): ≤ 30 min
whether the decrease in intraocular pressure was sustained (0.01% single dose, IOP followed to 24 hours): not sustained following 3 hours post treatment
Avg % change Group [1]: −53.33%
Avg Delta Eye Group [1]: −7.75
Ave OS 2 hpt IOP (0.01% single dose): 13.50 and 7.00
Avg OD 2 hpt IOP (0.01% single dose, right eye): 12.25 and 7.00
% Change (OD) (0.01% single dose, right eye, 2 h vs starting IOP): −56.67% and −50.00%
Avg % change Group [2]: −30.77%
Avg Delta Eye Group [2]: −4.94
Ave OS 2 hpt IOP (0.1% single dose): 13.25 and 9.00
Avg OD 2 hpt IOP (0.1% single dose, right eye): 11.50 and 13.25
effect on intraocular pressure (single topical ocular dose): decreased IOP with the greatest reduction of IOP observed for the lower R-DOI dosages; also recorded: acutely decreased intraocular pressure with a single dose
